{"source": "patent US12428370B2", "about": "“Haloallylamine dual amine oxidase inhibitors” (Syntara Limited, priority 2020, dated 2025)", "key": {"[1]": {"biological_target": "T1, Adipose Tissue SSAO/VAP-1 (Mus musculus, UniProt O70423)", "T1 construct": "from tissue; host or cells: abdominal fat of C57BL/6J and mdx (C57BL/10ScSn-Dmdmdx/J) mice", "T1 sequence (O70423 1-765)": "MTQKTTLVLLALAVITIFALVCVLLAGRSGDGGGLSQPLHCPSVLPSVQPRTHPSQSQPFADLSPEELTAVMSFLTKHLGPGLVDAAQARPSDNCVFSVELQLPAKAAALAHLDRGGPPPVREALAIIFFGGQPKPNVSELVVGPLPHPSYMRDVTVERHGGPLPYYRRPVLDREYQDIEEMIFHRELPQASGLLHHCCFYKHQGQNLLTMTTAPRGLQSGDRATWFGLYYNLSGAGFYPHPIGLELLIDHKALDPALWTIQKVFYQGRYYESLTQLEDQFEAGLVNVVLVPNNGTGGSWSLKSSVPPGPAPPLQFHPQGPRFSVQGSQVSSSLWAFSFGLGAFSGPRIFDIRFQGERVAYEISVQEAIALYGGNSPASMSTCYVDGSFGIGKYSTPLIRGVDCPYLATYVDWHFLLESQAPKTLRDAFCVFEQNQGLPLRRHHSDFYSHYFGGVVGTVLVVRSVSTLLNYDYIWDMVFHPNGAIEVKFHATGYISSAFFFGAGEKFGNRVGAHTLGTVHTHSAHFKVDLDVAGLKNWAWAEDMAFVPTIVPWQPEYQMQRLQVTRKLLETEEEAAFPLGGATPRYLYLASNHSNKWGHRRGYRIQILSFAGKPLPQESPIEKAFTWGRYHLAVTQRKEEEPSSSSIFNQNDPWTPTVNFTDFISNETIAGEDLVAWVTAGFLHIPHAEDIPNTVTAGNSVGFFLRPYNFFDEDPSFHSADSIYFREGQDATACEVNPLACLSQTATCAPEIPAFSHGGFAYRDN", "assay": "Mouse adipose tissue SSAO/VAP-1 activity after oral administration", "assay_type": "in vivo", "details": "for SSAO/VAP-1 activity in adipose tissue: C57BL/6J mice, single oral dose, FIG. 8", "procedure": "Mice were orally administered the compound under study and sacrificed at various time points and abdominal fat, muscle and heart tissue collected.\nSSAO/VAP-1 activity in the adipose tissue was determined as described in EXAMPLE 13.\nActivity of the treated samples was analyzed using the fluorometric method described in EXAMPLE 9 for SSAO/VAP-1 activity, EXAMPLE 10 for MAO-B and EXAMPLE 11 for MAO-A activity (FIG. 8 and FIG. 9)."}, "[2]": {"system": "Salmonella typhimurium strains TA98, TA100 and Escherichia. coli WP2 uvrA pKM101", "assay": "Miniaturized bacterial reverse mutagenicity screening assay", "assay_type": "cell-based", "details": "7.81-1000 μg/well, presence and absence of S9 metabolic activation", "procedure": "Compound 1 was tested for mutagenic potential in a miniaturized reverse mutation assay using Salmonella typhimurium strains TA98, TA100 and Escherichia. coli WP2 uvrA pKM101 in the presence and absence of a metabolic activation system. The test article was formulated in dimethylsulfoxide (DMSO) at nominal concentration of 50 mg/mL and serial dilutions were made from this stock solution. Final dosing concentrations were 1000, 500, 250, 125, 62.5, 31.3, 15.6 and 7.81 μg/well for the test article. Metabolic activation was provided using an S9 mix containing 10% v/v Aroclor-1254-induced rat liver S9 (Regensys System reagents, Moltox, Boone, NC)."}}, "data": [{"compound": "N#Cc1ccc(OC/C(=C/F)CN)cc1", "note": "[Compound 1, (E)-4-((2-(aminomethyl)-3-fluoroallyl)oxy) benzonitrile]", "values": [{"measurement": "SSAO/VAP-1 activity in adipose tissue", "setting": "[1]; 24-hour time point", "result": "inhibition of the enzyme activity is still evident"}, {"measurement": "SSAO/VAP-1 activity in adipose tissue", "setting": "[1]; various doses, 4 hours after administration", "result": "dose-related reduction"}, {"measurement": "adipose tissue SSAO/VAP-1 activity", "setting": "[1]; mdx mice (C57BL/10ScSn-Dmdmdx/J), oral, FIG. 10", "result": "completely inhibits"}, {"measurement": "mutagenic potential", "setting": "[2]", "result": "did not induce a response indicative of mutagenic potential"}]}]}
